Assay results published in ChEMBL document CHEMBL1201862, “PubChem BioAssay data set” (2004).
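Five compound concentrations were applied to cells in 96-well plates for 48 hours; endpoints were derived by simple linear interpolation of the resulting dose-response curve. GI50 marks 50% less growth.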 Calls of active or inactive are those of the source. Rule as the data show it: active = GI50 up to about 1.1 µM and inactive = higher.

Legend:
Assay in all cases: NCI tumour cell line growth inhibition, 48 h
CAKI-1 = system: CAKI-1
CCRF-CEM = system: CCRF-CEM
HL-60 = system: HL-60
K562 = system: K562
MOLT-4 = system: MOLT-4
NCI-H460 = system: NCI-H460
NCI-H522 = system: NCI-H522
OVCAR-3 = system: OVCAR-3
OVCAR-5 = system: OVCAR-5
OVCAR-8 = system: OVCAR-8
SF-295 = system: SF-295
SR = system: SR
U-251 = system: U-251
SK-MEL-28 = system: SK-MEL-28
SNB-19 = system: SNB-19
UO-31 = system: UO-31
RXF 393 = system: RXF 393

Row | Structure (SMILES) | GI50 (CAKI-1) | GI50 (CCRF-CEM) | GI50 (HL-60) | GI50 (K562) | GI50 (MOLT-4) | GI50 (NCI-H460) | GI50 (NCI-H522) | GI50 (OVCAR-3) | GI50 (OVCAR-5) | GI50 (OVCAR-8) | GI50 (SF-295) | GI50 (SR) | GI50 (U-251) | GI50 (SK-MEL-28) | GI50 (SNB-19) | GI50 (UO-31) | GI50 (RXF 393)
1 | COc1c(C)c2c(c(C)c1Cl)Oc1c(C=O)c(O)c(Cl)c(C)c1C(=O)O2 | 40.7 µM (inactive) | 20.3 µM (inactive) | 22.3 µM (inactive) | 26.8 µM (inactive) | 20.6 µM (inactive) | 32.3 µM (inactive) | 22.7 µM (inactive) | 11.7 µM (inactive) | 28.1 µM (inactive) | 36.7 µM (inactive) | 30.9 µM (inactive) | 27.5 µM (inactive) | 20.3 µM (inactive) |  |  |  | 
2 | Cc1cc([N+](=O)[O-])c(C)c2c1[nH]c1ccc(/C(CCC3CCCC3)=N\N)cc12 | > 10 µM (inactive) | 10.4 µM (inactive) | > 10 µM (inactive) | 10.3 µM (inactive) | 11.9 µM (inactive) | 18 µM (inactive) | 16.4 µM (inactive) | 20 µM (inactive) | > 10 µM (inactive) | 23.1 µM (inactive) | 18.8 µM (inactive) | 19.6 µM (inactive) |  | 16.9 µM (inactive) | 17.7 µM (inactive) | 15.3 µM (inactive) | 
3 | CC1=C(C(=O)Nc2ccccc2C)C(/C=C/c2ccccc2)C(C(=O)Nc2ccccc2C)=C(C)N1 | > 100 µM (inactive) | 82.6 µM (inactive) | 72.3 µM (inactive) | > 100 µM (inactive) |  | > 100 µM (inactive) | 67.1 µM (inactive) | > 100 µM (inactive) | > 100 µM (inactive) | > 100 µM (inactive) | > 100 µM (inactive) |  | 85.1 µM (inactive) | > 100 µM (inactive) | > 100 µM (inactive) | 34.8 µM (inactive) | 51.1 µM (inactive)
4 | COc1cc(C2C(Cl)C(=O)N2NC(=O)c2ccc(N)cc2)cc(Br)c1O (stereo unspecified) | 16.8 µM (inactive) | 2.92 µM (inactive) | 8.75 µM (inactive) | 10.2 µM (inactive) | 4.23 µM (inactive) | 16.6 µM (inactive) | 1.92 µM (inactive) | 8.38 µM (inactive) | 19.4 µM (inactive) | 28.4 µM (inactive) | 14.6 µM (inactive) |  | 3.31 µM (inactive) | 16.2 µM (inactive) | 11.7 µM (inactive) | 17.8 µM (inactive) | 
5 | CC12CC(Sc3ccccc3N1)c1ccccc1O2 (stereo unspecified) | 19.2 µM (inactive) | 12.1 µM (inactive) | 11 µM (inactive) | 14.3 µM (inactive) | 16.6 µM (inactive) | 16.6 µM (inactive) |  | 16.4 µM (inactive) | 19 µM (inactive) | 17.9 µM (inactive) | 16 µM (inactive) | 13.6 µM (inactive) | 13.2 µM (inactive) | 16.7 µM (inactive) | 15.2 µM (inactive) | 14.1 µM (inactive) | 15.9 µM (inactive)
6 | CN1CCN2c3ccccc3CC(C#N)(C#N)C2C1 (stereo unspecified) | > 100 µM (inactive) | > 100 µM (inactive) | > 100 µM (inactive) | > 100 µM (inactive) | > 100 µM (inactive) | > 100 µM (inactive) | > 100 µM (inactive) | > 100 µM (inactive) | > 100 µM (inactive) | > 100 µM (inactive) | > 100 µM (inactive) |  | > 100 µM (inactive) | > 100 µM (inactive) | > 100 µM (inactive) | > 100 µM (inactive) | > 100 µM (inactive)
7 | CC[P+](C)(C)CC |  | > 100 µM (inactive) | > 100 µM (inactive) | > 100 µM (inactive) | > 100 µM (inactive) | > 100 µM (inactive) |  | > 100 µM (inactive) | > 100 µM (inactive) | > 100 µM (inactive) | > 100 µM (inactive) | > 100 µM (inactive) | > 100 µM (inactive) | > 100 µM (inactive) | > 100 µM (inactive) | > 100 µM (inactive) | > 100 µM (inactive)
8 | O=C(O)/C(=C/c1ccccc1[N+](=O)[O-])c1cccs1 | > 100 µM (inactive) |  | > 100 µM (inactive) | > 100 µM (inactive) | > 100 µM (inactive) | > 100 µM (inactive) | > 100 µM (inactive) | > 100 µM (inactive) | > 100 µM (inactive) | > 100 µM (inactive) | > 100 µM (inactive) | > 100 µM (inactive) | > 100 µM (inactive) | > 100 µM (inactive) | > 100 µM (inactive) | > 100 µM (inactive) | 
9 | CCOC(=O)C(=O)Nc1ccccc1C(F)(F)F | > 100 µM (inactive) |  |  |  |  | > 100 µM (inactive) |  | > 100 µM (inactive) | > 100 µM (inactive) | > 100 µM (inactive) | > 100 µM (inactive) | 2.39 µM (inactive) | > 100 µM (inactive) | > 100 µM (inactive) | > 100 µM (inactive) | > 100 µM (inactive) | > 100 µM (inactive)
10 | O=C1Nc2ccccc2C12CCCC2 | > 100 µM (inactive) | > 100 µM (inactive) | > 100 µM (inactive) | > 100 µM (inactive) | > 100 µM (inactive) | > 100 µM (inactive) | > 100 µM (inactive) | > 100 µM (inactive) |  | > 100 µM (inactive) | > 100 µM (inactive) |  | > 100 µM (inactive) | > 100 µM (inactive) | > 100 µM (inactive) | > 100 µM (inactive) | > 100 µM (inactive)
11 | O=C(O)COc1ccc2c3c1C(=O)CCC3CO2 (stereo unspecified) | > 100 µM (inactive) | > 100 µM (inactive) | > 100 µM (inactive) | > 100 µM (inactive) | > 100 µM (inactive) | > 100 µM (inactive) | > 100 µM (inactive) | > 100 µM (inactive) | > 100 µM (inactive) | > 100 µM (inactive) | > 100 µM (inactive) |  | > 100 µM (inactive) | > 100 µM (inactive) | > 100 µM (inactive) | > 100 µM (inactive) | 
12 | O=C(O)[C@@H](NS(=O)(=O)c1ccc([N+](=O)[O-])cc1)c1ccccc1 | > 100 µM (inactive) | > 100 µM (inactive) | > 100 µM (inactive) | > 100 µM (inactive) | > 100 µM (inactive) | > 100 µM (inactive) | 73.6 µM (inactive) | > 100 µM (inactive) | > 100 µM (inactive) | > 100 µM (inactive) | > 100 µM (inactive) |  | > 100 µM (inactive) | > 100 µM (inactive) | > 100 µM (inactive) | > 100 µM (inactive) | > 100 µM (inactive)
13 | O=C1/C=C(/c2ccc(O)cc2)[C@@H](OC2OC(CO)C(O)C(O)C2O)Cc2ccc(O)cc2O1.O=C1/C=C(/c2ccc(O)cc2)[C@H](O)Cc2ccc(O[C@@H]3OC(CO)C(O)C(O)C3O)cc2O1 (stereo partly specified) | > 100 µM (inactive) |  | 4.91 µM (inactive) |  |  | > 100 µM (inactive) | > 100 µM (inactive) | > 100 µM (inactive) | > 100 µM (inactive) | > 100 µM (inactive) | > 100 µM (inactive) | 1 µM (active) | > 100 µM (inactive) |  | > 100 µM (inactive) | > 100 µM (inactive) | 
14 | CC(C)=C1CCC(CN2CCCC2)C1=O (stereo unspecified) | 13.7 µM (inactive) | 17.7 µM (inactive) | 19.7 µM (inactive) | 21.8 µM (inactive) | 21.9 µM (inactive) | 58.7 µM (inactive) |  | 17.4 µM (inactive) | 94.6 µM (inactive) | > 100 µM (inactive) | > 100 µM (inactive) | 15.8 µM (inactive) |  | 26.7 µM (inactive) | > 100 µM (inactive) | 20.8 µM (inactive) | 21.4 µM (inactive)
15 | O=C(C(=O)c1ccc(Cc2ccc(C(=O)C(=O)c3ccccc3)cc2)cc1)c1ccccc1 | > 100 µM (inactive) | 61.5 µM (inactive) | > 100 µM (inactive) | > 100 µM (inactive) |  | > 100 µM (inactive) | > 100 µM (inactive) | > 100 µM (inactive) | > 100 µM (inactive) | > 100 µM (inactive) | > 100 µM (inactive) |  | > 100 µM (inactive) | > 100 µM (inactive) | > 100 µM (inactive) | > 100 µM (inactive) | > 100 µM (inactive)
16 | C=C1C(=O)O[C@H](c2ccoc2)C[C@@H]1[C@@]1(C)CCCC2(C)C(=O)OCC21 (stereo partly specified) | > 100 µM (inactive) | > 100 µM (inactive) |  | > 100 µM (inactive) | > 100 µM (inactive) | > 100 µM (inactive) | > 100 µM (inactive) | > 100 µM (inactive) | > 100 µM (inactive) | > 100 µM (inactive) | > 100 µM (inactive) |  | > 100 µM (inactive) | > 100 µM (inactive) | > 100 µM (inactive) | > 100 µM (inactive) | > 100 µM (inactive)
17 | Cn1c2c(c3ccccc31)CCN(CCCCN1CCc3c(n(C)c4ccccc34)C1=O)C2 | > 100 µM (inactive) | > 100 µM (inactive) | > 100 µM (inactive) | > 100 µM (inactive) | > 100 µM (inactive) | > 100 µM (inactive) | > 100 µM (inactive) | > 100 µM (inactive) | > 100 µM (inactive) | > 100 µM (inactive) | > 100 µM (inactive) |  | > 100 µM (inactive) | > 100 µM (inactive) | > 100 µM (inactive) | > 100 µM (inactive) | > 100 µM (inactive)
18 | CC(=O)OC1CCn2nnc(COC(=O)NC(C)C)c21 (stereo unspecified) | > 100 µM (inactive) |  |  | > 100 µM (inactive) | > 100 µM (inactive) | > 100 µM (inactive) | > 100 µM (inactive) | > 100 µM (inactive) | > 100 µM (inactive) | > 100 µM (inactive) | > 100 µM (inactive) | > 100 µM (inactive) | > 100 µM (inactive) | > 100 µM (inactive) | > 100 µM (inactive) | > 100 µM (inactive) | > 100 µM (inactive)
